Source: PMC4143111, “Photoswitchable precision glycooligomers and their lectin binding” (Beilstein Journal of Organic Chemistry, 2014)

How the values were obtained:
[1] = Photoisomerization, composition at photostationary state by UPLC; type: physicochemical; details: irradiation at 360 nm
Method: The photochromic behavior of the newly synthesized AZO-glycooligomers was investigated by UV–vis absorption spectroscopy and ultraperformance liquid chromatography (UPLC). Aqueous solutions of Azo-Gal(1,3)-3 and Azo-Gal(1,3,5)-5 (the compounds were dissolved in the buffer used for the SPR measurements, see Supporting Information File 1 for the details) were irradiated at λ = 360 nm to induce the E → Z isomerization. […] The composition at the photostationary state (PSS) was analyzed by UPLC using integration of the UV signal at the wavelengths of the isosbestic points.

PA-IL [2] = target: T1, PA-IL (Pseudomonas aeruginosa, UniProt Q05097); test: SPR inhibition/competition assay of PA-IL binding to β-D-galactose-polymer chip
T1 sequence (Q05097 whole entry): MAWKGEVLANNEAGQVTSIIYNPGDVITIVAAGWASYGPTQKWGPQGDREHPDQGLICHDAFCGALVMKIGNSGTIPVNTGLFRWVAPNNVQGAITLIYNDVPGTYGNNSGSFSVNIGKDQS
Method: In order to determine the binding affinity of the precision glycooligomers to PA-IL, surface plasmon resonance (SPR) experiments were performed. At first, an inhibition/competition assay was carried out. The SPR chip was modified with a β-D-galactose-polymer and α-D-mannose-polymer as negative control (see Supporting Information File 1). In a first experiment, binding of PA-IL (1 µM) to the chip was determined and set as 100%. In a second set of experiments, binding of preincubated mixtures of PA-IL (1 µM) and glycooligomers at serial dilutions (400 µM to 0.1 µM) were measured. […] Plotting this concentration dependent decrease in binding against […], sigmoidal curves were obtained and fitted with the Hill equation. The inhibitory concentration at 50% binding (IC50) was derived for the different glycooligomers (Table 2).
SPR PA-IL inhibition/competition studies:
A sensor chip SA coated with streptavidin was conditioned with three consecutive injections of 100 µl 1 M NaCl and 50 mM NaOH in a flow rate of 100 µL/min. Then, biotinylated β-D-galactose-PAA (0.1 nM in HBS-EP buffer) was immobilized on flow cell 2 with HBS-EP buffer in a flow rate of 5 µL/min.
Biotinylated α-D-mannose-PAA with the same concentration was immobilized as reference on flow cell 1. Binding analyses were carried out with running buffer (HEPES 10 mM, NaCl 150 mM, CaCl2 10 mM, pH 7.4.) at a flow rate of 20 µl/min. The PA-IL binding of the glycooligomers AZO-Gal(1,3)-3, AZO-Gal(1,3,5)-5, EDS-Gal(1,3)-3, EDS-Gal(1,3,5)-5 and AZO-Man(1,3,5)-5 (as control) was examined.
1 µM Pa-IL was incubated with the specific substance at final concentrations of 400 µM, 100 µM, 50 µM, 25 µM, 10 µM, 1 µM and 0.1 µM, in running buffer for 60 minutes at room temperature.
45 µL of each sample were injected over both lanes whereas the binding signal on the reference cell (α-D-mannose-PAA) was subtracted from the β-D-galactose-PAA flow cell during the binding measurement. Each binding cycle consisted of an injection phase for 80 s followed by a 100 s dissociation phase. The chip was regenerated after each run with 100 mM D-galactose in running buffer. The response values were calculated by subtraction of the report point at the beginning of the sample injections (0 s) from the report point at the end of the dissociation phase ([…]). The binding signal obtained by the 1 µM Pa-IL solution in running buffer without inhibitor was set to 100 % binding. This sample was measured 2 times before and 2 times after each measuring cycle. The binding signals of the specific inhibitor was referred to Pa-IL and calculated for relative PA-Il binding in % of PA-IL. Each data point (concentration) represents the mean value (± SEM) of two measurements. The obtained data points for each concentration were plotted with Origin 8.5G and fit with Hill1 equation, allowing for the determination of IC50 values (the concentration of inhibitor that results from 50 % binding of PA-IL binding to β-D-galactose-PAA on the sensor chip).
The characteristic sigmoidal shape (see Figure S4) was fitted with the Hill equation to obtain the IC50 […]
where Start is the value at 100% binding and equals 100, End is the value where no binding is observed anymore and equals 0, x corresponds to the concentration and n describes the cooperativity. IC50 values describe the inhibitory potential of a ligand for a specific receptor which is no direct measure for the affinity of a ligand but can be related to the affinity of the ligand in a competitive experiment e.g. as we have performed with PA-IL and against β-D-galactose.

PA-IL [3] = target: T1, PA-IL; test: SPR direct binding assay, glycooligomers immobilized on chip, PA-IL flown over; details: steady-state affinity model
Source text: In order to approach practical applications of a photoswitchable device that could modulate its binding affinity towards PA-IL lectins on demand, we were intrigued in the ability of our light-responsive systems to work when immobilized on a surface. To this end we attached the photoswitchable precision glycooligomers directly to the SPR chip and performed a second set of lectin binding experiments using SPR and measuring PA-IL binding on the chip. The glycooligomers were covalently linked to the chip via their terminal amine group and the simultaneous activation of the carboxyl-functionalized chip surface as N-hydroxysuccinimide (NHS) ester (see Supporting Information File 1). Successful functionalization was monitored by SPR. Photoswitching of the glycooligomers was realized either ex situ prior to surface functionalization or in situ by direct irradiation of the functionalized chip. The equilibrium constant KD was obtained by fitting the obtained binding values at the turning point between binding- and dissociation-curve with a steady-state affinity model (Biacore T100 Evaluation Software 2.0.3). In agreement with the previously determined IC50 values, all KD values are in the µM range.
Figure S5: Inhibition curves of controls, Azo-Man(1,3,5)-5 and β-methyl galactose.
SPR PA-IL direct binding studies
For direct binding studies, glycooligomers E-Azo-Gal(1,3)-3, E-Azo-Gal(1,3,5)-5, Azo-Gal(1,3)-3-PSS and Azo-Gal(1,3,5)-5-PSS were immobilized on Biacore CM5 sensor chips. Two PSS were additionally generated by irradiation of the corresponding E structure immobilized on the Biacore sensor chip with light at 360 nm (see irradiation section above for details). Immobilizations were performed by flowing a solution of 2 mM glycoligand for 5 minutes with 10 µL per minute over one flow cell, after activation of it with 0.4 M […] in water and 0.1 M NHS in water. Remaining active ester groups were capped by injection of 1 M ethanolamine. HBS-P (0.01 M HEPES pH 7.4, 0.15 M NaCl, 0.005% v/v Surfactant P20 in water) was used as running buffer. A second flow cell was immobilized as blank reference cell, by flowing 1 M ethanolamine over the cell after activation with 0.4 M EDS in water and 0.1 M NHS in water. Serial dilutions of PA-IL (25 µM, 10 µM, 5 µM, 1 µM, 0.1 µM and 0 µM) were then flown over the sensor chip at 25 °C with Hepes running buffer (HEPES 10 mM, NaCl 150 mM, CaCl2 10 mM, pH 7.4.). Binding of lectin was evaluated with Biacore T100 evaluation software, determining KD affinity constants by employing a steady state affinity model.
(1 picture or pasted object on this page, not shown here)

[4] = no isomer state given (control structures), PA-IL 1 µM

In the case of `CC(=O)NCCN(CCNC(=O)CCC(=O)NCc1ccc(/N=N/c2ccc(C(=O)NCCN(CCNC(=O)CCC(=O)NCCN)C(=O)CCc3cn(CCO[C@@H]4O[C@H](CO)[C@H](O)[C@H](O)[C@H]4O)nn3)cc2)cc1)C(=O)CCc1cn(CCO[C@@H]2O[C@H](CO)[C@H](O)[C@H](O)[C@H]2O)nn1` [AZO-Gal(1,3)-3], the “Z-azobenzene in the PSS solution” value ([1]; buffer solution) is reported as 78%, the IC50 (PA-IL [2]; IC50, E-isomer, PA-IL 1 µM preincubated with glycooligomer 400 µM to 0.1 µM) is reported as 5.7 ± 1.7 µM and the IC50 (PA-IL [2]; IC50, PSS: photostationary state @ 360 nm, PA-IL 1 µM preincubated with glycooligomer 400 µM to 0.1 µM) is reported as 9.4 ± 0.1 µM. It also gave a Kd (PA-IL [3]; KD, E-form immobilized on chip, 25 °C) of 1.7 ± 0.1 µM, a Kd (PA-IL [3]; KD, PSS @ 360 nm, ex situ irradiation before immobilization) of 2.4 ± 0.1 µM and a Kd (PA-IL [3]; KD, PSS @ 360 nm, irradiation on chip) of 1.8 ± 0.1 µM.

For `CC(=O)NCCN(CCNC(=O)CCC(=O)NCc1ccc(/N=N/c2ccc(C(=O)NCCN(CCNC(=O)CCC(=O)NCc3ccc(/N=N/c4ccc(C(=O)NCCN(CCNC(=O)CCC(=O)NCCN)C(=O)CCc5cn(CCO[C@@H]6O[C@H](CO)[C@H](O)[C@H](O)[C@H]6O)nn5)cc4)cc3)C(=O)CCc3cn(CCO[C@@H]4O[C@H](CO)[C@H](O)[C@H](O)[C@H]4O)nn3)cc2)cc1)C(=O)CCc1cn(CCO[C@@H]2O[C@H](CO)[C@H](O)[C@H](O)[C@H]2O)nn1` [AZO-Gal(1,3,5)-5], the “E,E-isomer that did not isomerize at PSS” value ([1]; UPLC) was 10%, the “E,Z isomer at PSS” value ([1]; UPLC) was 10% and the “Z,E isomer at PSS” value ([1]; UPLC) was 10%. The “Z,Z-isomer at PSS” value ([1]; UPLC) was 70%, the “total amount of Z-azobenzenes in the PSS mixture” value ([1]; buffer solution, from isomer composition) was 80% and the IC50 (PA-IL [2]; E-isomer, PA-IL 1 µM preincubated with glycooligomer 400 µM to 0.1 µM) was 3.4 ± 0.4 µM. It also gave an IC50 (PA-IL [2]; PSS: photostationary state @ 360 nm, PA-IL 1 µM preincubated with glycooligomer 400 µM to 0.1 µM) of 4.1 ± 1.3 µM, a Kd (PA-IL [3]; E-form immobilized on chip, 25 °C) of 3.3 ± 0.3 µM and a Kd (PA-IL [3]; PSS @ 360 nm, ex situ irradiation before immobilization) of 7.4 ± 0.9 µM. For the same compound, the Kd (PA-IL [3]; PSS @ 360 nm, irradiation on chip) was 3.2 ± 0.9 µM.

For `CC(=O)NCCN(CCNC(=O)CCC(=O)NCc1ccc(/N=N/c2ccc(C(=O)NCCN(CCNC(=O)CCC(=O)NCc3ccc(/N=N/c4ccc(C(=O)NCCN(CCNC(=O)CCC(=O)NCCN)C(=O)CCc5cn(CCO[C@H]6O[C@H](CO)[C@@H](O)[C@H](O)[C@@H]6O)nn5)cc4)cc3)C(=O)CCc3cn(CCO[C@H]4O[C@H](CO)[C@@H](O)[C@H](O)[C@@H]4O)nn3)cc2)cc1)C(=O)CCc1cn(CCO[C@H]2O[C@H](CO)[C@@H](O)[C@H](O)[C@@H]2O)nn1` [AZO-Man(1,3,5)-5], the “binding to PA-IL (in words)” value (PA-IL [2]; SPR inhibition/competition assay) was “does not show any binding” and the IC50 (PA-IL [2]; [4]) was “n.b.^b”.

With `CC(=O)NCCN(CCNC(=O)CCC(=O)NCCOCCOCCNC(=O)CCC(=O)NCCN(CCNC(=O)CCC(=O)NCCN)C(=O)CCc1cn(CCO[C@@H]2O[C@H](CO)[C@H](O)[C@H](O)[C@H]2O)nn1)C(=O)CCc1cn(CCO[C@@H]2O[C@H](CO)[C@H](O)[C@H](O)[C@H]2O)nn1` [EDS-Gal(1,3)-3] the IC50 (PA-IL [2]; IC50, no isomer state given (control structures), PA-IL 1 µM) was 3.2 ± 0.2 µM.

For `CC(=O)NCCN(CCNC(=O)CCC(=O)NCCOCCOCCNC(=O)CCC(=O)NCCN(CCNC(=O)CCC(=O)NCCOCCOCCNC(=O)CCC(=O)NCCN(CCNC(=O)CCC(=O)NCCN)C(=O)CCc1cn(CCO[C@@H]2O[C@H](CO)[C@H](O)[C@H](O)[C@H]2O)nn1)C(=O)CCc1cn(CCO[C@@H]2O[C@H](CO)[C@H](O)[C@H](O)[C@H]2O)nn1)C(=O)CCc1cn(CCO[C@@H]2O[C@H](CO)[C@H](O)[C@H](O)[C@H]2O)nn1` [EDS-Gal(1,3,5)-5], the IC50 (PA-IL [2]; [4]) was 2 ± 0.6 µM.
